# In patent US10517913B2, “Composition for prevention, alleviation, or treatment of peripheral neuropathy comprising Lithospermi Radix extract as an effective component” (priority 2015, dated 2019):
# Tests used:
# CYP1A2 = test: Induction of CYP1A2 gene expression in HepaRG (real-time PCR); assay type: in vitro ADME, human; settings: 50 μM omeprazole (positive control), 24 hours
# Description: (§1) HepaRG was purchased from the Thermo Fisher Scientific. The cells were used immediately after purchase without any subculture. A William's medium E basal medium supplemented with Thaw, Plate & General Purpose Supplements was used for general cell culture. A William's medium E basal medium supplemented containing Induction Medium Supplements was used for induction experiment. The cells were cultured in a 24-well culture plate coated with collagen type I in an incubator at 37° C., 5% CO2. All culture media and additives used for HepaRG cell culture were purchased from the Thermo Fisher Scientific.
# (§2) According to [Materials and Methods 3-4], human hepatoma cell line (HepaRG) were plated at 5×10^5 cells/ml in a 24-well plate coated with collagen type I and cultured for 72 hours at 37° C., 5% CO2. Then, the cells were treated for 24 hours with a positive control drug or with a Lithospermi Radix extract (WLR) at concentrations of 10, 20, 100, and 500 μg/ml. For a positive control drug, 50 μM omeprazole was used for CYP1A2 and CYP2B6, and 10 μM rifampicin was used for CYP3A4 and P-gp. Distilled water was used as a negative control. After 24 hours, total RNA was extracted using an Easy-Spin™ Total RNA extraction kit (iNtRON Biotechnology). cDNA was synthesized from total RNA (500 ng) using oligo dT and iScript cDNA synthesis kit (Bio-Rad). […]
# CYP2B6 = test: Induction of CYP2B6 gene expression in HepaRG (real-time PCR); assay type: in vitro ADME, human; settings: 50 μM omeprazole (positive control), 24 hours
# Description: as §1, §2
# P-gp = test: Induction of P-gp gene expression in HepaRG (real-time PCR); assay type: in vitro ADME, human; settings: 10 μM rifampicin (positive control), 24 hours
# Description: as §1, §2
# PC-12 cells [1] = test: Neurite outgrowth assay kit (NS225), qualitative analysis; assay type: cell-based; settings: 200 nM oxaliplatin, NGF 100 ng/ml, 48 hours
# Description: (§3) PC-12 was purchased from the ATCC (USA). The cells were cultured in a 100 mm cell culture dish coated with collagen type I in an incubator at 37° C., 5% CO2, using a DMEM basal medium supplemented with 5% non-heat inactivated fetal bovine serum (FBS), 10% heat inactivated horse serum (HS), 100 unit/ml penicillin, and 100 μg/ml streptomycin. The basal medium, sera, and other additives were purchased from the Thermo Fisher Scientific.
# The neuroprotective effect of the Lithospermi Radix extract of the present invention was determined using a neurite outgrowth analysis kit (NS225, Millipore) with 1 μm pore-sized membrane.
# Specifically, PC-12 was cultured according to [Materials and Methods 3-1] for 72 hours in a DMEM low serum-differentiation medium supplemented with 1% horse serum, 100 unit/ml penicillin, 100 μg/ml streptomycin, and 100 ng/ml nerve growth factor (NGF). The membrane with 1 μm pores was coated by immersing it in a 24-well plate containing a 10 μg/ml collagen solution in an amount of 400 μl/well for 2 hours at 37° C. The collagen-coated membrane was transferred to a well containing a 600 μl of differentiation medium, and then, the differentiated PC-12 cells for 72 hours were plated at 75,000 cells/100 μl/membrane. The cells were treated with 200 nM oxaliplatin to induce neurotoxicity. […]
# PC-12 cells [2] = test: NGF-induced neurite growth, quantitative image analysis; assay type: cell-based; settings: 200 nM oxaliplatin, NGF 100 ng/ml, 3 days
# Description: as §3
# Specifically, PC-12 cells cultured according to [Materials and Methods 3-1] were evenly plated at 1×10^4 cells/well on a 24-well plate coated with collagen type IV in a DMEM growth medium where the cells were allowed to adhere on the bottom of the plate. After 12 hours, the medium was exchanged with a serum-free DMEM medium containing 100 ng/ml nerve growth factor (NGF) to induce neurite growth. The cells were treated with 200 nM oxaliplatin (Oxal) to induce neurotoxicity. Cells were co-treated with the Lithospermi Radix extract (WLR) prepared according to [Materials and Methods 1] at concentrations of 25 and 100 μg/ml, and amifostine (Ami) at 500 μM as a positive control. After 3 days, the ratios of cells forming neurites and the lengths of the neurites were quantified using image analysis under an optical microscope.
# [3] = tested on: astrocytes and microglial cells in spinal cord of peripheral neuropathic animals induced by oxaliplatin; test: Immunohistological analysis of glial cells (GFAP, Iba-1) in lumbar spinal cord; assay type: in vivo, C57BL/6 mice
# Description: (§4) In the present invention, an animal model having peripheral neuropathy was induced by oxaliplatin. Eight-week old male C57BL/6 mice were purchased from the OrientBio. Following 1 week acclimation period in a cage in an animal test room, the base line (BL) of responses of experimental animals to 3 times of mechanical stimulations applied to the right hind footpad of the animal using von Frey filament hair. Then, the animals were divided into different groups (N=8 animals/group). Peripheral neuropathy was induced by injection of 5 mg/kg oxaliplatin through tail veins of animals (once a week, 2 times for 2 weeks, i.e., 10 mg/kg oxaliplatin in total). Oxaliplatin was purchased from the LC Laboratories.
# (§5) The specimens were prepared to histologically determine the protective effect of the Lithospermi Radix extract (WLR) against neuronal damage in peripheral neuropathic animals induced by oxaliplatin. Specifically, the animal was anaesthetized by intraperitoneal injection of sodium pentobarbital (50 mg/kg), and then, blood was removed by perfusion of 0.9% physiological saline through the aorta via left ventricle. Following fixation by perfusion of 4% paraformaldehyde solution buffered with 0.1 M phosphate, the 4th to 6th lumbar spinal cords, dorsal root ganglia, and the hind footpad skins were removed. The tissues were further fixed in the same fixation solution as above. The paraffin-embedded tissues were sectioned at a 4 μm thickness. The slices were mounted on a glass slide, dried, and then, kept at room temperature until use.
# The slice of spinal cord with 4 μm thickness was subjected to immunofluorescence staining using antibodies against GFAP and Iba-1 which are astrocyte and microglial cell markers, respectively. After removal of paraffin and hydration, the slice was immersed in citrate buffer solution (Vector Lab., USA) for 10 minutes in a microwave to recover antigenicity and increase reactivity. […]
# The activity of the glial cells was expressed by the ratio (%) of the area of stained cells relative to the viewing area under a fluorescence microscope. The fluorescence microscopic images were analyzed compared to the control treatment using a software (Cellsense, Olympus).
# Specifically, peripheral neuropathy was induced in male C57BL/6 mice by oxaliplatin (10 mg/kg) according to [Materials and Methods 4]. […] Using the obtained specimen, activation of astrocytes and microglial cells in dorsal horn areas of the lumbar spinal cord of the animals was measured by detecting GFAP and Iba-1 marker proteins, respectively, according to [Materials and Methods 6-2]. Distribution of intraepidermal nerve fiber (IENF) in the hind footpad skin was measured by detecting PGP9.5 marker protein according to [Materials and Methods 6-3].
# [4] = tested on: intraepidermal nerve fiber (IENF) of peripheral neuropathic animals induced by oxaliplatin; test: Quantitative histological analysis of intraepidermal nerve fiber (PGP9.5) in hind footpad skin; assay type: in vivo, C57BL/6 mice
# Description: as §4, with “Laboratories. […]” for “Laboratories.”
# The slice of hind footpad skin with 4 μm thickness was subjected to immunofluorescence staining using a PGP9.5 antibody, a marker for IENF in skin. […] The expression level of intraepidermal nerve fibers was expressed by the number of fluorescence-stained nerves in epidermis which were stemmed from dermis per field length of the basal membrane of epidermis (IENF/mm) within a viewing area under a fluorescence microscope. The fluorescent microscopic images were analyzed compared with control treatment using a software (Cellsense, Olympus). […]
# [5] = tested on: dorsal root ganglion (DRG) neurons of peripheral neuropathic animals induced by oxaliplatin; test: Morphological cell analysis of dorsal root ganglion neurons; assay type: in vivo, C57BL/6 mice
# Description: as §4, §5
# Dorsal root ganglions were cut out, sectioned into slices with 4 μm thickness and then, subjected to Azan-Mallory trichrome staining. The nucleoli in the stained slice were examined under an optical microscope. Among the neurons having discernible nucleoli, the number of neurons having eccentric nucleoli or multinucleolated nucleus was expressed as a percentage of the total neurons in a viewing area.
# Specifically, peripheral neuropathy was induced in male C57BL/6 mice by oxaliplatin (10 mg/kg) according to [Materials and Methods 4]. After that, the mice were orally administered 6 times per week with 250 mg/kg of a Lithospermi Radix extract (WLR) prepared in [Materials and Methods 1] or 0.5% carboxymethyl cellulose (CMC) as a negative control. In addition, 100 mg/kg amifostine was intraperitoneally administered 2 times per week as a positive control. After drug administration for 2 weeks, dorsal root ganglion (DRG) was cut out according to [Materials and Methods 6-1]. Using the obtained specimen, morphological change of nucleus and nucleoli in the dorsal root ganglion (DRG) neurons was observed according to [Materials and Methods 6-4].
# [6] = tested on: human lung cancer cells (A549); test: Drug-herb interaction with oxaliplatin cytotoxicity (Ez-Cytox), A549; assay type: cell-based; settings: oxaliplatin 0 to 100 μg/ml alone (No treat), 72 hours
# Description: (§6) A549 and HCT116 cells were purchased from the ATCC (USA). They were cultured in a 100 mm cell culture dish in an incubator at 37° C., 5% CO2, using an RPMI1640 basal medium supplemented with 10% heat inactivated FBS, 100 unit/ml penicillin, and 100 μg/ml streptomycin, and then used for in vitro tests. The basal medium, serum, and other additives were purchased from the Thermo Fisher Scientific.
# (§7) Specifically, human lung cancer cells (A549) and human colon cancer cells (HCT116) were cultured according to [Materials and Methods 3-3]. The cells were plated in a 96-well culture dish at 5,000 cells per well. After 24 hours, the cells were simultaneously treated with serially diluted oxaliplatin (0 to 100 μg/ml) and the Lithospermi Radix extract (0(PBS), 10, 30, 100 μg/ml) prepared according to [Materials and Methods 1]. The cell only treated with oxaliplatin was served as a negative control. After 72 hours, the cell viability (%) was measured using Ez-Cytox assay kit. The rate of cell death (% death) caused by oxaliplatin was expressed by (100−cell viability (%)).
# [7] = tested on: human colon cancer cells (HCT116); test: Drug-herb interaction with oxaliplatin cytotoxicity (Ez-Cytox), HCT116; assay type: cell-based; settings: oxaliplatin 0 to 100 μg/ml alone (No treat), 72 hours
# Description: as §6, §7
# [8] = oxaliplatin 10 mg/kg, lumbar spinal cord dorsal horn
# [9] = after oxaliplatin 10 mg/kg, WLR 250 mg/kg oral 6 times per week or amifostine 100 mg/kg i.p. 2 times per week, 2 weeks
smiles,measurement,setting,value
COc1ccc2[nH]c([S+]([O-])Cc3ncc(C)c(OC)c3C)nc2c1 (centres unmarked) [omeprazole],expression of CYP1A2,CYP1A2,effectively enhanced
same,expression of CYP2B6,CYP2B6,effectively enhanced
CO[C@H]1/C=C/O[C@@]2(C)Oc3c(C)c(O)c4c(O)c(c(/C=N/N5CCN(C)CC5)c(O)c4c3C2=O)NC(=O)/C(C)=C\C=C\[C@H](C)[C@H](O)[C@@H](C)[C@@H](O)[C@@H](C)[C@H](OC(C)=O)[C@@H]1C [rifampicin],expression of P-gp,P-gp,effectively enhanced
O=C1[O][Pt]2([NH][C@@H]3CCCC[C@H]3[NH]2)[O]C1=O [oxaliplatin],Nerve growth factor-induced neurite growth,PC-12 cells [1],inhibited
same,neurite growth induced by nerve growth factor (NGF),PC-12 cells [2],inhibited
same,number of activated astrocytes (GFAP positive cells),[3]; [8],increased
same,number of activated microglial cells (Iba-1 positive cells),[3]; [8],increased
same,densities of intraepidermal nerve fibers in hind footpad skin,[4]; oxaliplatin 10 mg/kg,reduced
same,frequency of DRG neurons having eccentric nucleoli,[5]; oxaliplatin 10 mg/kg,increased
same,frequency of DRG neurons having multinucleolated nucleus,[5]; oxaliplatin 10 mg/kg,increased
same,growth of cancer cells,[6],inhibited
same,growth of cancer cells,[7],inhibited
NCCCNCCSP(=O)(O)O [amifostine],oxaliplatin-increased number of activated astrocytes (GFAP positive cells),[3]; [9],reduced to the same extent
same,oxaliplatin-increased number of activated microglial cells (Iba-1 positive cells),[3]; [9],reduced to the same extent
same,oxaliplatin-reduced densities of intraepidermal nerve fibers in hind footpad skin,[4]; [9],recovered
same,oxaliplatin-induced morphological change: DRG neurons having eccentric nucleoli,[5]; [9],reduced to the same extent
same,oxaliplatin-induced morphological change: number of neurons having multinucleolated nucleus,[5]; [9],decreased with statistical significance
